A short description of the series: Analysis of 1/T1 ^1H NMRD profiles. In kind it is physicochemical. As to the method: The relaxometric characterization of the Gd complexes was carried out by recording their ^1H nuclear magnetic relaxation dispersion (NMRD) profiles at 283, 298, and 310 K in the proton Larmor frequency range 0.01–120 MHz, corresponding to magnetic field strengths varying between 2.34 × 10^–4 and 3 T (Figure 2). The shape of the NMRD profiles and their temperature dependence (r1 decreases with increasing temperature) reflect the general behavior of small Gd^III complexes, characterized by a constant r1 value at low fields, a dispersion around 4–6 MHz, and another region at high fields (>20 MHz) where r1 slightly decreases. […] A least-squares fit of the profiles was carried out in terms of the established theory of paramagnetic relaxation expressed by the Solomon–Bloembergen–Morgan[30],[31] and Freed’s[32] equations for the innersphere (IS) and outersphere (OS) proton relaxation mechanisms, respectively (Table 3). Because of the large number of parameters involved in the fitting procedure, some of them were fixed to known or reasonable values: The hydration number q was fixed to 1, and the distance between Gd^III and the protons of the bound water molecule, r, was fixed to 3.0 Å; the distance of closest approach, a, of the outersphere water molecules to Gd^III was set to 4.0 Å, and for the relative diffusion coefficient D, standard values of 1.7, 2.24, and 3.1 × 10^–5 cm^2 s^–1 (283, 298, and 310 K) were used. […] The difference in relaxivity between GdL1 and GdL2 cannot account for the difference in τR since their molecular weight is very similar; therefore, we considered that the pendant propionate moiety of GdL2 allows for the presence of second sphere (SS) water molecules in H-bonding interaction with the carboxylate group at a distance from Gd^III sufficiently short (<4 Å) and with a residence time sufficiently long to be affected by the rotation. […] Therefore, we analyzed the NMRD profiles for GdL2 also considering the SS contribution, expressed in terms of two additional parameters: the number qSS of second sphere water molecules and their rotational correlation time, τR(SS). The average distance from the paramagnetic center was arbitrarily fixed at 3.5 Å, an intermediate value between those of water molecules in the inner (3.0 Å) and outer (4.0 Å) solvation shell.[33] In addition, since GdL1 and GdL2 are structurally related to the recently reported GdHPADO3A-like complexes having a carbonyl group in place of the methyl group present in GdHPDO3A, τM was fixed to that reported for GdHPADO3A at pH 7 (20 ns).[7] The electronic and reorientation parameters reported in Table 3 for GdL1 and GdL2 are in good agreement with those of other GdHPDO3A-like complexes. Finally, considering the contribution of two second sphere water molecules characterized by a rotational correlation time τR(SS) of 30 ps, the contribution of the SS molecules to the relaxivity of GdL2 is about 0.3 mM^–1 s^–1 at 20 MHz and 298 K almost equal to the Δr1 between GdL1 and GdL2.
Proton relaxation measurements (1/T1) and the resulting 1/T1 NMRD profiles were measured on a fast-field cycling (FFC) Stelar SmarTracer relaxometer over a continuum of magnetic field strengths from 0.000 24 to 0.25 T (corresponding to 0.01–10 MHz proton Larmor frequencies). The relaxometer operates under computer control with an absolute uncertainty in 1/T1 of ±1%. […] Furthermore, the real temperature inside the probe head was additionally monitored by a Fluke 52 k/j digital thermometer (Fluke, Zürich, Switzerland). The gadolinium concentration was determined by measuring the bulk magnetic susceptibility shifts of the t-BuOH ^1H NMR signal. Additional data in the 20–120 MHz frequency range were obtained with a high field relaxometer (Stelar) equipped with the HTS-110 3T metrology cryogen-free superconducting magnet. […] The pH-dependent relaxivity measurements of GdL1 and GdL2 complexes were carried out by direct titration of the samples (GdL2, 3.0 < pH < 12.5; GdL1, 4 < pH < 10). […]

Values joined by “and” are separate entries in the source; they are usually repeats but may differ in a detail not shown here. Equal entries are not always repeated.

In the case of `O=C([O-])CN1CCN(CC(=O)[O-])CCN(CC(O)C(=O)O)CCN(CC(=O)[O-])CC1.[Gd+3]` (stereo not shown) [GdL2], the “contribution of the second sphere (SS) water molecules to the relaxivity” value (20 MHz, 298 K, qSS = 2, τR(SS) 30 ps) is recorded as “about 0.3 mM^–1 s^–1”. Also, for the setting “298 K, 60 MHz, pH 7.4”, the “^298r1-60-MHz” value was found to be 4.6 ± 0.1 mM^–1 s^–1. In addition, the “^310r1-60-MHz” value (310 K, 60 MHz, pH 7.4) is listed as 3.6 ± 0.1 mM^–1 s^–1. Besides, where the note is “NMRD fit”, the “Δ^2” value is listed as 8.5 ± 0.2 10^19 s^–2 and the τv was 13.7 ± 0.5 ps. Further, the τR (NMRD fit, q = 1) is 68 ± 2 ps. Also, where the note is “determined for qSS = 2 and rSF = 3.5 Å”, the “τR(SS)” value is 30 ps and 30 ± 2 ps.

The record behind these values is publication PMC8769378, “Underlining the Importance of Peripheral Protic Functional Groups to Enhance the Proton Exchange of Gd-Based MRI Contrast Agents” (Inorganic Chemistry, 2021).
